Measurements: patent US8481540B2, “Inhibitors of bruton's tyrosine kinase” (Hoffmann-La Roche Inc., priority 2010, dated 2013)
Structures can show the parent of a compound that is named as a salt. Where two headings read alike, the source gives them in different places.

Tested on: B cells in human blood
Experiment: Inhibition of B cell activation in whole blood measured by CD69 expression
Assay type: cell-based
Method: Inhibition of B Cell Activation in Whole Blood Measured by CD69 Expression
A procedure to test the ability of Btk inhibitors to suppress B cell receptor-mediated activation of B cells in human blood is as follows:
Human whole blood (HWB) is obtained from healthy volunteers, with the following restrictions: 24 hr drug-free, non-smokers. Blood is collected by venipuncture into Vacutainer tubes anticoagulated with sodium heparin. Test compounds are diluted to […] the desired starting drug concentration in PBS (20×), followed by three-fold serial dilutions in 10% DMSO in PBS to produce a nine point dose-response curve. 5.5 μl of each compound dilution is added in duplicate to a 2 ml96-well V bottom plate (Analytical Sales and Services, #59623-23); 5.5 μl of 10% DMSO in PBS is added to control and no-stimulus wells. HWB (100 μl) is added to each well, and after mixing the plates are incubated at 37 C, 5% CO2, 100% humidity for 30 minutes. Goat F(ab′)2 anti-human IgM (Southern Biotech, #2022-14) (10 μl of a […] solution, 50 μg/ml final concentration) is added to each well (except the no-stimulus wells) with mixing and the plates are incubated for an additional 20 hours.
At the end of the 20 hour incubation, samples are incubated with florescent-probe-labeled anti-bodies (15 μl PE Mouse anti-Human CD20, BD Pharmingen, #555623, and/or 20 ul APC Mouse anti-Human CD69, BD Pharmingen #555533) for 30 minutes, at 37 C, 5% CO2, 100% humidity. Included are induced control, unstained and single stains for compensation adjustments and initial voltage settings. Samples are then lysed with 1 ml of 1× Pharmingen Lyse Buffer (BD Pharmingen #555899), and plates are centrifuged at 1800 rpm for 5 minutes. Supernatants are removed via suction and the remaining pellets are lysed again with another 1 ml of 1× Pharmingen Lyse Buffer, and plates are spun down as before. Supernatants are aspirated and remaining pellets are washed in FACs buffer (PBS+1% FBS). After a final spin, the supernantants are removed and pellets are resuspended in 180 μl of FACs buffer. Samples are transferred to a 96 well plate suitable to be run on the HTS 96 well system on the BD LSR II flow cytometer.
Using appropriate excitation and emission wavelengths for the fluorophores used, data are acquired and percent positive cell values are obtained using Cell Quest Software. Results are initially analyzed by FACS analysis software (Flow Jo). […] The IC50 values are calculated using XLfit software version 3, equation 201.
Representative compound data for this assay are listed below in Table II.

[1] = CD69-positive, CD20-positive cells after anti-IgM stimulation, human whole blood, 20 hours, read-out: Human Whole Blood

Row | SMILES | IC50 [1] | other results
1 | CN1CCC(c2ccc(Nc3cc(-c4cccc(-n5ccc6cc(C(C)(C)C#N)cc(F)c6c5=O)c4CO)nn(C)c3=O)nc2)C1 (stereo in doubt) [I-89, 2-[8-Fluoro-2-(2-hydroxymethyl-3-{1-methyl-5-[5-((S)-1-methyl-pyrrolidin-3-yl)-pyridin-2-ylamino]-6-oxo-1,6-dihydro-pyridazin-3-yl}-phenyl)-1-oxo-1,2-dihydro-isoquinolin-6-yl]-2-methyl-propionitrile] | 485 nM | 
2 | Cn1nc(-c2cccc(-n3ncc4cc(C(C)(C)C)cc(F)c4c3=O)c2CO)cc(Nc2ccc(C(=O)N3CCOCC3)cn2)c1=O [I-2, 6-tert-Butyl-8-fluoro-2-(2-hydroxymethyl-3-{1-methyl-5-[5-(morpholine-4-carbonyl)-pyridin-2-ylamino]-6-oxo-1,6-dihydro-pyridazin-3-yl}-phenyl)-2H-phthalazin-1-one] |  | IC50 (Homo sapiens, 20 h, read-out: Human Whole Blood): 14 nM
3 | CN(C)C(=O)c1ccc(Nc2cc(-c3cccc(-n4ncc5cc(C(C)(C)C)cc(F)c5c4=O)c3CO)nn(C)c2=O)nc1 [I-10, 6-{6-[3-(6-tert-Butyl-8-fluoro-1-oxo-1H-phthalazin-2-yl)-2-hydroxymethyl-phenyl]-2-methyl-3-oxo-2,3-dihydro-pyridazin-4-ylamino}-N,N-dimethyl-nicotinamide] |  | IC50 (Homo sapiens, 20 h, read-out: Human Whole Blood, CD69-positive, CD20-positive cells after anti-IgM stimulation, human whole blood, 20 hours): 19 nM
4 | Cn1nc(-c2cccc(-n3ncc4cc(C(C)(C)C)cc(F)c4c3=O)c2CO)cc(Nc2ccc(OC(C)(C)CO)cn2)c1=O [I-12, 6-tert-butyl-8-fluoro-2-(3-{5-[5-(2-hydroxy-1,1-dimethyl-ethoxy)-pyridin-2-ylamino]-1-methyl-6-oxo-1,6-dihydro-pyridazin-3-yl}-2-hydroxymethyl-phenyl)-2H-phthalazin-1-one] | 52 nM | 
5 | Cn1nc(-c2cccc(-n3ncc4cc(C(C)(C)C)cc(F)c4c3=O)c2CO)cc(Nc2ccc(OC(C)(C)CN3CCC3)cn2)c1=O [I-13, 2-(3-{5-[5-(2-azetidin-1-yl-1,1-dimethyl-ethoxy)-pyridin-2-ylamino]-1-methyl-6-oxo-1,6-dihydro-pyridazin-3-yl}-2-hydroxymethyl-phenyl)-6-tert-butyl-8-fluoro-2H-phthalazin-1-one] | 9 nM | 
6 | Cn1nc(-c2cccc(-n3ncc4cc(C(C)(C)C)cc(F)c4c3=O)c2CO)cc(Nc2ccc(OCC(C)(C)O)cn2)c1=O [I-14, 6-tert-butyl-8-fluoro-2-(2-hydroxymethyl-3-{5-[5-(2-hydroxy-2-methyl-propoxy)-pyridin-2-ylamino]-1-methyl-6-oxo-1,6-dihydro-pyridazin-3-yl}-phenyl)-2H-phthalazin-1-one] | 65 nM | 
7 | Cn1nc(-c2cccc(-n3ccc4cc(C(C)(C)C#N)cc(F)c4c3=O)c2CO)cc(Nc2ccc(C(=O)N3CCOCC3)cn2)c1=O [I-15, 2-[8-fluoro-2-(2-hydroxymethyl-3-{1-methyl-5-[5-(morpholine-4-carbonyl)-pyridin-2-ylamino]-6-oxo-1,6-dihydro-pyridazin-3-yl}-phenyl)-1-oxo-1,2-dihydro-isoquinolin-6-yl]-2-methyl-propionitrile] | 163 nM | 
8 | COC[C@H](O)COc1ccc(Nc2cc(-c3cccc(-n4ncc5cc(C(C)(C)C)cc(F)c5c4=O)c3CO)nn(C)c2=O)nc1 [I-16, 6-tert-Butyl-8-fluoro-2-(3-{5-[5-((S)-2-hydroxy-3-methoxy-propoxy)-pyridin-2-ylamino]-1-methyl-6-oxo-1,6-dihydro-pyridazin-3-yl}-2-hydroxymethyl-phenyl)-2H-phthalazin-1-one] | 26 nM | 
9 | COC[C@@H](O)COc1ccc(Nc2cc(-c3cccc(-n4ncc5cc(C(C)(C)C)cc(F)c5c4=O)c3CO)nn(C)c2=O)nc1 [I-17] | 41 nM | 
10 | CN1CCC[C@H]1c1ccc(Nc2cc(-c3cccc(-n4ncc5cc(C(C)(C)C)cc(F)c5c4=O)c3CO)nn(C)c2=O)nc1 [I-18, 6-tert-Butyl-8-fluoro-2-(2-hydroxymethyl-3-{1-methyl-5-[5-((S)-1-methyl-pyrrolidin-2-yl)-pyridin-2-ylamino]-6-oxo-1,6-dihydro-pyridazin-3-yl}-phenyl)-2H-phthalazin-1-one] | 3 nM | 
11 | CN1CCC[C@@H]1c1ccc(Nc2cc(-c3cccc(-n4ncc5cc(C(C)(C)C)cc(F)c5c4=O)c3CO)nn(C)c2=O)nc1 [I-19, 6-tert-Butyl-8-fluoro-2-(2-hydroxymethyl-3-{1-methyl-5-[5-((R)-1-methyl-pyrrolidin-2-yl)-pyridin-2-ylamino]-6-oxo-1,6-dihydro-pyridazin-3-yl}-phenyl)-2H-phthalazin-1-one] | 7 nM | 
12 | CN(C)C(=O)c1ccc(Nc2cc(-c3cccc(-n4ncc5cc(C(C)(C)C)cc(F)c5c4=O)c3CO)nn(C)c2=O)nc1 [I-20] | 15 nM | 
13 | Cn1nc(-c2cccc(-n3ncc4cc(C(C)(C)C)cc(F)c4c3=O)c2CO)cc(Nc2ccc(C(=O)N3CCC(C)(O)CC3)cn2)c1=O [I-21, 6-tert-butyl-8-fluoro-2-(2-hydroxymethyl-3-{5-[5-(4-hydroxy-4-methyl-piperidine-1-carbonyl)-pyridin-2-ylamino]-1-methyl-6-oxo-1,6-dihydro-pyridazin-3-yl}-phenyl)-2H-phthalazin-1-one] | 109 nM | 
14 | CN1CC2(C1)CN(c1ccc(Nc3cc(-c4cccc(-n5ncc6cc(C(C)(C)C)cc(F)c6c5=O)c4CO)nn(C)c3=O)nc1)C2 [I-22, 6-tert-butyl-8-fluoro-2-(2-hydroxymethyl-3-{1-methyl-5-[5-(6-methyl-2,6-diaza-spiro[3.3]hept-2-yl)-pyridin-2-ylamino]-6-oxo-1,6-dihydro-pyridazin-3-yl}-phenyl)-2H-phthalazin-1-one] | 33 nM | 
15 | CCS(=O)(=O)c1ccc(Nc2cc(-c3cccc(-n4ncc5cc(C(C)(C)C)cc(F)c5c4=O)c3CO)nn(C)c2=O)nc1 [I-23, 6-tert-Butyl-2-{3-[5-(5-ethanesulfonyl-pyridin-2-ylamino)-1-methyl-6-oxo-1,6-dihydro-pyridazin-3-yl]-2-hydroxymethyl-phenyl}-8-fluoro-2H-phthalazin-1-one] | 60 nM | 
16 | CC(C)S(=O)(=O)c1ccc(Nc2cc(-c3cccc(-n4ncc5cc(C(C)(C)C)cc(F)c5c4=O)c3CO)nn(C)c2=O)nc1 [I-24, 6-tert-Butyl-8-fluoro-2-(2-hydroxymethyl-3-{1-methyl-6-oxo-5-[5-(propane-2-sulfonyl)-pyridin-2-ylamino]-1,6-dihydro-pyridazin-3-yl}-phenyl)-2H-phthalazin-1-one] | 116 nM | 
17 | Cn1nc(-c2cccc(-n3ncc4cc(C(C)(C)C)cc(F)c4c3=O)c2CO)cc(Nc2ccc(S(=O)(=O)CCO)cn2)c1=O [I-26, 6-tert-Butyl-8-fluoro-2-(3-{5-[5-(2-hydroxyethanesulfonyl)-pyridin-2-ylamino]-1-methyl-6-oxo-1,6-dihydro-pyridazin-3-yl}-2-hydroxymethyl-phenyl)-2H-phthalazin-1-one] | 152 nM | 
18 | CC(C)N1CCN(c2ccc(Nc3cc(-c4cccc(-n5ncc6cc(C(C)(C)C)cc(F)c6c5=O)c4CO)nn(C)c3=O)nc2)CC1 [I-27, 6-tert-Butyl-8-fluoro-2-(2-hydroxymethyl-3-{5-[5-(4-isopropyl-piperazin-1-yl)-pyridin-2-ylamino]-1-methyl-6-oxo-1,6-dihydro-pyridazin-3-yl}-phenyl)-2H-phthalazin-1-one HCl] | 89 nM | 
19 | CN1CCC(c2ccc(Nc3cc(-c4cccc(-n5ncc6cc(C(C)(C)C)cc(F)c6c5=O)c4CO)nn(C)c3=O)nc2)C1 (stereo not drawn) [I-28, 6-tert-Butyl-8-fluoro-2-(2-hydroxymethyl-3-{1-methyl-5-[5-(1-methyl-pyrrolidin-3-yl)-pyridin-2-ylamino]-6-oxo-1,6-dihydro-pyridazin-3-yl}-phenyl)-2H-phthalazin-1-one] | 6 nM | 
20 | CC(C)N1CCC(c2ccc(Nc3cc(-c4cccc(-n5ncc6cc(C(C)(C)C)cc(F)c6c5=O)c4CO)nn(C)c3=O)nc2)CC1 [I-29, 6-tert-Butyl-8-fluoro-2-{2-hydroxymethyl-3-[5-(1′-isopropyl-1′,2′,3′,4′,5′,6′-hexahydro-[3,4′]bipyridinyl-6-ylamino)-1-methyl-6-oxo-1,6-dihydro-pyridazin-3-yl]-phenyl}-2H-phthalazin-1-one] | 15 nM | 
21 | CCN1CCC(c2ccc(Nc3cc(-c4cccc(-n5ncc6cc(C(C)(C)C)cc(F)c6c5=O)c4CO)nn(C)c3=O)nc2)CC1 [I-30, 6-tert-Butyl-2-{3-[5-(1′-ethyl-1′,2′,3′,4′,5′,6′-hexahydro-[3,4]bipyridinyl-6-ylamino)-1-methyl-6-oxo-1,6-dihydro-pyridazin-3-yl]-2-hydroxymethyl-phenyl}-8-fluoro-2H-phthalazin-1-one] | 4 nM | 
